The text below walks through data of patent US10031127B2, “Method for separating aggregates of malignant cells and aggregates from stromal cells of a malignant tumour tissue sample” (Flacod GmbH, priority 2012, dated 2018).

Each structure is given as a SMILES string.

The subject of experiment [1] is clusters of malignant cells and/or stromal cell clusters of malignant lung tumors (fractionated and unfractionated digestion products). Put plainly: chemosensitivity to cisplatin, colony formation on ECM-coated culture plates. The note with it: 6000 nM cisplatin, 3 days incubation, most of the fractionated and unfractionated digestion products. In kind it is cell-based. The method, then:
(§1) Samples were freshly resected from malignant lung tumors of various histologies, then purified and minced. Tumor tissue samples of 5 to 10 mg per 1 mL were suspended in RPMI 1640 culture medium with an FBS content of 10%. These suspensions were subjected to a collagenase digestion, preferably using Clostridium histolyticum collagenase (230 CDU/mL) for a period of 4 to 5 hours at 36° C. to 37° C., preferably at 36.5° C. Next the digested product was centrifuged at 50×g, the supernatant was discarded and the pellet was dissolved and resuspended in 1 mL fresh culture medium. Each test preparation was transferred to a Petri dish and adjusted with culture medium to a concentration corresponding to 5 to 10 mg tumor sample wet weight per 1 mL culture medium.
(§2) The cell suspension of each test preparation (test run) was picked up with a 1 mL pipette tip (another aspiration device can also be used) and then discharged again, 4 to 5 times in succession, and thereby subjected to a treatment with hydrodynamic shearing forces. Next, with the help of an inverse microscope equipped with a phase contrast lens system, cell clusters of phenotypically the same cells were detected and each was transferred to a separate culture vessel using injection cannulas no. 23 (diameter 0.6 mm, length 60-80 mm) attached to 2 mL injection syringes. […]

For experiment [2], the system named is isolated stromal cell clusters of malignant lung tumors. Nature of the experiment: chemosensitivity to cisplatin, isolated stromal cell clusters. Format: cell-based. The note with it: isolated microscopically identified stromal cell clusters, in the absence of malignant cells; 3 days, 0-6000 nM cisplatin. The method, then: as §1, §2

Turning to `N.N.[Cl][Pt][Cl]` [cisplatin], the “colony formation ex vivo in the presence of cisplatin” value in experiment [1] was “capable of forming colonies ex vivo even in the presence of 6000 nM cisplatin”. In addition, the “cisplatin resistance of stromal cell clusters” value in experiment [2] was “often have cisplatin resistance even in the absence of malignant cells”.
